US11510859B2, “Method for improving aqueous solubility of water-insoluble or slightly water-soluble drugs” (MARINOMED BIOTECH AG, priority 2015, dated 2022)

Key:
[1] = Solubility of fluticasone propionate in 0.25x McIlvaine buffer (Examples 10, 11); assay type: physicochemical
Description: 0% Propylene glycol • B . . . 5% Propylene glycol • C . . . 10% Propylene glycol • * . . . w/v % Escin • # . . . v/v % Dexpanthenol • y-axis . . . concentration of dissolved fluticasone propionate
FIG. 7 represents the impact of dexpanthenol and saponin concentration on the dissolution of fluticasone propionate in 0.25× McIlvaine buffer containing 5% propylene glycol (maximum concentration achieved=5 μg/ml). […] The presence of 5% dexpanthenol seems to deliver solubility boosting effects. • A . . . 0% Dexpanthenol • B . . . 5% Dexpanthenol • y-axis . . . concentration of dissolved fluticasone propionate • x-axis . . . % Glycyrrhizin

porcine nasal mucosa = test: Ex vivo penetration of fluticasone propionate into porcine nasal mucosa; assay type: in vitro ADME; settings: 5 μg/ml; 0.03% escin, 3% propylene glycol, 5% dexpanthenol vs suspension without saponin; 15-60 min
Description: In order to test for the bioavailability of compositions prepared in accordance with the present invention, experiments were conducted ex vivo wherein an experimental composition comprising fluticasone propionate as a compound of interest was compared to a composition comprising the same compound at the same concentration but without a saponin as a solubilization enhancer.
FIG. 14 represents the concentrations of fluticasone propionate penetrated ex-vivo into porcine nasal mucosa at different time points. The experimental composition comprised 5 μg/ml fluticasone propionate dissolved in aqueous buffer comprising 0.03% escin, 3% propylene glycol and 5% dexpanthenol. The comparative specimen was a suspension comprising the same aqueous buffer and no saponin nor dexpanthenol. Both formulations were added ex-vivo onto surgically extracted porcine nasal mucosa. After 15, 30, 45 and 60 minutes of incubation the mucosa was washed and the amount of permeated fluticasone propionate was determined by HPLC-MS/MS. • A—experimental composition; • B—comparative fluticasone propionate suspension; • x-axis=incubation time in minutes; • y-axis=ng fluticasone propionate/g tissue.

[2] = Saturation concentrations of drugs in buffered solvent, HPLC of supernatant (Example 4); assay type: physicochemical; settings: McIlvaine buffer pH 6.0; compound pre-dissolved in propylene glycol
Description: 250 μl “McIlvaine 0.1%” were mixed with 50 μl dexpanthenol stock solution, brought to 900 μl with distilled water, and combined and vigorously mixed with 100 μl experimental compound pre-dissolved resp. pre-suspended in propylene glycol. Alternative solutions with compound pre-dilutions/pre-suspensions in DMSO were prepared. Samples were centrifuged for 10 min at 15800 rcf. Aliquots of the clear supernatants were transferred into autosampler glass vials and the content of the dissolved experimental compounds was analyzed by HPLC using isocratic elution with 70% or 80% acetonitrile 0.01% TFA/[…] or 30% water 0.01% TFA at 1 ml/min and 50° C. for 10 min on an Agilent Zorbax Eclipse Plus C18 column (3.5 μm, 4.6×150 mm) and UV absorbance detection at the wavelengths appropriate for the respective experimental compound.

[3] = Fluticasone propionate solubility in the presence of hyaluronic acid (Examples 3, 14); assay type: physicochemical; settings: 5% propylene glycol, 7.5 g/l hyaluronic acid; one month storage at ambient temperature
Description: Samples of series A (0% dexpanthenol): 2.5 ml solution containing the respective escin concentration (McIlvaine 0.01%, 0.02%, 0.03% or McIlvaine buffer) were mixed with 3.6 ml hyaluronic acid stock solution and 0.5 ml Fluticasone propionate pre-solution and filled up to 10 ml with distilled water. Samples of series B (2% dexpanthenol): 2.5 ml solution containing the respective escin concentration (McIlvaine 0.01%, 0.02%, 0.03% or McIlvaine buffer) were mixed with 0.2 ml dexpanthenol, 3.6 ml Hyaluronic acid stock solution and 0.5 ml fluticasone propionate pre-solution and filled up to 10 ml with distilled water. […]
After 1 month storage at room temperature, samples were taken and centrifuged for 11 min at 15700 rcf. The clear supernatant was filled into glass vials and the concentration of dissolved FP (maximal 5 μg/ml) was measured in duplicates by HPLC.
Fluticasone propionate in the presence of hyaluronic acid was analyzed by RP-HPLC (UV absorbance detection at 235 nm) using a gradient from 5% acetonitrile to 90% acetonitrile in water containing 0.01% TFA (see detailed gradient description below).
Solvent A: water HPLC gradient grade 0.01% trifluoroacetic acid. […] From the fluticasone propionate containing samples 40 μl each were injected and analyzed. […]

[4] = U.S. Pat. No. 4,868,170; cited from earlier work

best achieved concentration without saponin relative to maximum concentration with at least 0.03% escin ([1]; 0.25x McIlvaine buffer pH 6, propylene glycol 0-10%, dexpanthenol 0-5%)	maximum concentration achieved ([1]; 0.25x McIlvaine buffer, 5% propylene glycol, glycyrrhizin, dexpanthenol 0% or 5%) [µg/mL]	concentration of drug permeated into mucosal tissue, experimental composition versus comparative suspension (porcine nasal mucosa)	Saturation concentration in 10% propylene glycol or DMSO without escin or dexpanthenol [2] [µg/mL]	Saturation concentration in 10% propylene glycol or DMSO, 0.1% escin and 5% dexpanthenol [2] [µg/mL]	Structure (SMILES)	effect of dexpanthenol on fluticasone propionate solubility in the presence of escin [3]	aqueous solubility [4]
about 50%	5	around five times higher	0.68	5	CCC(=O)O[C@]1(C(=O)SCF)[C@H](C)C[C@H]2[C@@H]3C[C@H](F)C4=CC(=O)C=C[C@]4(C)[C@@]3(F)[C@@H](O)C[C@@]21C [Fluticasone propionate]	synergistically boost the solubility enhancing activity of escin	–
–	–	–	–	–	CCS[C@]1(SC)CC[C@H]2[C@@H]3CCC4=CC(=O)C=C[C@]4(C)[C@@]3(F)[C@@H](O)C[C@@]21C [tipredane]	–	less than 0.2 mg/l
